The values that follow are results of earlier work, collected in patent US5348950A, “Platinum(II) complex and antitumor agent” (Toray Industries, Inc., priority 1991, dated 1994).

The conditions of the data set: background statement.

Turning to `N.N.O=C([O-])C1(C(=O)[O-])CCC1.[Pt+2]` [CBDCA, cisdiammine(1,1-cyclobutanedicarboxylato)platinum(II)], the anti-tumor activity entry is given as “low anti-tumor activity”.
Turning to `N.N.[Cl][Pt][Cl]` [CDDP, cisdiamminedichloroplatinum(II)], the side effects result was “strong side effects”.
